The results in this text go back to BindingDB's records for doi:10.1016/s0960-894x(03)00195-1 (Abbott Laboratories, 2003).

This experiment can be described thus: Inhibition of transfer of […] to biotin K-ras peptide (KKSKTKCVLL) catalyzed by bovine GGTase-I.

For orientation: IC50 means the point on the concentration scale where inhibition reaches its midpoint. Higher therefore signals lower potency.

`Cn1cncc1[C@H](OCc1nc(Cl)c(C#N)cc1-c1cccc(Cl)c1)c1ccc(C#N)cc1`: the IC50 was determined as 2.8 µM.
`Cn1cncc1C(OCc1nc(N2CCN(C(=O)OC(C)(C)C)CC2)c(C#N)cc1-c1cccc(Cl)c1)c1ccc(C#N)cc1` (centres undefined) showed an IC50 of 0.65 µM.
Regarding `Cn1cncc1C(OCc1ccc(C#N)nc1-c1cccc(OC(F)(F)F)c1)c1ccc(C#N)cc1` (centres undefined), inhibition was half-maximal at 0.51 µM (IC50). The IC50 values of the last two compounds are within 1.5-fold of each other.
On to `Cn1cncc1C(OCc1ncc(C#N)cc1-c1cccc(Cl)c1)c1ccc(C#N)cc1` (centres undefined), for which the IC50 amounted to 4.2 µM.
Then `CC(=O)N1CCN(c2nc(COC(c3ccc(C#N)cc3)c3cncn3C)c(-c3cccc(Cl)c3)cc2C#N)CC1` (centres undefined), with 2.1 µM.
`Cn1cncc1C(OCc1ccc(C#N)nc1-c1cc(F)cc(F)c1)c1ccc(C#N)cc1` (centres undefined) came in with an IC50 of 4.8 µM.
On to `Cn1cncc1C(OCc1ccc(C#N)c(-c2ccc3ccccc3c2)n1)c1ccc(C#N)cc1` (centres undefined), for which it took 2.6 µM to reach half-maximal inhibition (IC50). This IC50 is about 1.8-fold lower than that of the compound before.
On to `Cn1cncc1C(OCc1ccc(C#N)c(-c2cccc(Cl)c2)n1)c1ccc(C#N)cc1` (centres undefined) [2-(3-Chloro-phenyl)-6-[(4-cyano-phenyl)-(3-methyl-3H-imidazol-4-yl)-methoxymethyl]-nicotinonitrile], for which the IC50 came to 1.1 µM.
The figure for `Cn1cncc1C(OCc1ccc(C#N)cc1)c1ccc(C#N)c(-c2cccc3cccnc23)c1` (centres undefined) [4-[(4-Cyano-benzyloxy)-(3-methyl-3H-imidazol-4-yl)-methyl]-2-quinolin-8-yl-benzonitrile] is 0.103 µM; for `COc1cccc(-c2cc(C#N)ccc2COC(c2ccc(C#N)cc2)c2cncn2C)c1` (centres undefined) [4-{[(4-cyanophenyl)(1-methyl-1H-imidazol-5-yl)methoxy]methyl}-3-(3-methoxyphenyl)benzonitrile] it is 3.9 µM; for `Cn1cncc1C(OCc1nc(N2CCC(C(N)=O)CC2)c(C#N)cc1-c1cccc(Cl)c1)c1ccc(C#N)cc1` (centres undefined) [5'-(3-Chloro-phenyl)-3'-cyano-6'-[(4-cyano-phenyl)-(3-methyl-3H-imidazol-4-yl)-methoxymethyl]-3,4,5,6-tetrahydro-2H-[1,2']bipyridinyl-4-carboxylic acid amide] it is 2.1 µM.
`Cn1cncc1C(OCc1nc(N2CCC(O)CC2)c(C#N)cc1-c1cccc(Cl)c1)c1ccc(C#N)cc1` (centres undefined) [5'-(3-Chloro-phenyl)-6'-[(4-cyano-phenyl)-(3-methyl-3H-imidazol-4-yl)-methoxymethyl]-4-hydroxy-3,4,5,6-tetrahydro-2H-[1,2']bipyridinyl-3'-carbonitrile] displayed a half-inhibitory concentration (IC50) of 0.83 µM.
The figure for `CN1CCN(c2nc(COC(c3ccc(C#N)cc3)c3cncn3C)c(-c3cccc(Cl)c3)cc2C#N)CC1` (centres undefined) [5-(3-Chloro-phenyl)-6-[(4-cyano-phenyl)-(3-methyl-3H-imidazol-4-yl)-methoxymethyl]-2-(4-methyl-piperazin-1-yl)-nicotinonitrile] is 2.4 µM; for `Cn1cncc1C(OCc1nc(N2CCOCC2)c(C#N)cc1-c1cccc(Cl)c1)c1ccc(C#N)cc1` (centres undefined) [5-(3-Chloro-phenyl)-6-[(4-cyano-phenyl)-(3-methyl-3H-imidazol-4-yl)-methoxymethyl]-2-morpholin-4-yl-nicotinonitrile] it is 1.8 µM.
The figure for `Cn1cncc1C(OCc1ccc(C#N)cc1-c1cc(Cl)cc(Cl)c1)c1ccc(C#N)nc1` (centres undefined) [5-[(3',5'-Dichloro-5-cyano-biphenyl-2-ylmethoxy)-(3-methyl-3H-imidazol-4-yl)-methyl]-pyridine-2-carbonitrile] is 0.96 µM; for `Cn1cncc1C(OCc1ccc(C#N)cc1-c1ccc(F)c(Cl)c1)c1ccc(C#N)nc1` (centres undefined) [5-[(3'-Chloro-5-cyano-4'-fluoro-biphenyl-2-ylmethoxy)-(3-methyl-3H-imidazol-4-yl)-methyl]-pyridine-2-carbonitrile] it is 8.6 µM; for `Cn1cncc1C(OCc1ccc(C#N)cc1-c1cccc(Cl)c1)c1ccc(C#N)nc1` (centres undefined) [5-[(3'-Chloro-5-cyano-biphenyl-2-ylmethoxy)-(3-methyl-3H-imidazol-4-yl)-methyl]-pyridine-2-carbonitrile] it is 8.62 µM.
As to `Cn1cncc1C(OCc1ccc(C#N)nc1-c1ccc2c(c1)OC(F)(F)O2)c1ccc(C#N)cc1` (centres undefined) [5-[(4-Cyano-phenyl)-(3-methyl-3H-imidazol-4-yl)-methoxymethyl]-6-(2,2-difluoro-benzo[1,3]dioxol-5-yl)-pyridine-2-carbonitrile], the IC50 is 1.1 µM. Compared with the last compound, the IC50 is about 7.8-fold lower.
Then `Cn1cncc1C(OCc1ccc(C#N)nc1-c1cc(Cl)cc(Cl)c1)c1ccc(C#N)cc1` (centres undefined) [5-[(4-Cyano-phenyl)-(3-methyl-3H-imidazol-4-yl)-methoxymethyl]-6-(3,5-dichloro-phenyl)-pyridine-2-carbonitrile], with 1.4 µM; and `Cn1cncc1C(OCc1ccc(C#N)nc1-c1ccc(OC(F)(F)F)cc1)c1ccc(C#N)cc1` (centres undefined) [5-[(4-Cyano-phenyl)-(3-methyl-3H-imidazol-4-yl)-methoxymethyl]-6-(4-trifluoromethoxy-phenyl)-pyridine-2-carbonitrile], with 1.2 µM.
The figure for `Cn1cncc1C(OCc1ccc(C#N)nc1-c1ccc2ccccc2c1)c1ccc(C#N)cc1` (centres undefined) [5-[(4-Cyano-phenyl)-(3-methyl-3H-imidazol-4-yl)-methoxymethyl]-6-naphthalen-2-yl-pyridine-2-carbonitrile] is 5.5 µM; for `Cn1cncc1C(OCc1ccc(C#N)cc1-c1cccc(OC(F)(F)F)c1)c1ccc(C#N)nc1` (centres undefined) [5-[(5-Cyano-3'-trifluoromethoxy-biphenyl-2-ylmethoxy)-(3-methyl-3H-imidazol-4-yl)-methyl]-pyridine-2-carbonitrile] it is 0.99 µM.
Then `Cn1cncc1C(OCc1ccc(C#N)nc1-c1cccc(Cl)c1)c1ccc(C#N)cc1` (centres undefined) [6-(3-Chloro-phenyl)-5-[(4-cyano-phenyl)-(3-methyl-3H-imidazol-4-yl)-methoxymethyl]-pyridine-2-carbonitrile], with 1.7 µM; and `Cn1cncc1C(OCc1ccc(C#N)cn1)c1ccc(C#N)c(-c2cccc3ccccc23)c1` (centres undefined) [A-315493], with 0.024 µM.
